Data taken from patent publication US20020168329A1, “Skin composition” (Unilever Home & Personal Care USA, Division of Conopco, Inc., priority 2001, published 2002).

System: Volunteers with oily skin type
Assay: Oil (sebum) secretion on the skin measured with Sebumeter SM 810 PC after one week of twice-daily cream use
Assay type: in vivo, human
Conditions: after 2 hours; conclusion from Table 1
Protocol: Method of Testing Oil Secretion:
The above mentioned formulations (Examples 1 to 4) were tested for their efficacy in reducing the oil secretion on the skin using a sebumeter by the following protocol.
Volunteers with oily skin type were recruited. The initial sebum was measured with Sebumeter SM 810 PC on the cheeks, and the selection was made such that they had approximately similar sebum profile. The panellists were asked to use 0.5 g of the assigned cream on their face twice a day, for one week. The sebum profile was measured on the 8th day. The panellists washed their face and the sebum secretion on the skin surface after 2 hours was measured using the Sebumeter SM 810 PC on the cheeks.
Sebumeter is a device for measuring sebum content on skin surface. A piece of plastic film (wound in the form of a cassette) is kept on the skin for 30 sec. By this means the […] measuring area of the plastic film becomes transparent due to absorbed sebum. […] Sebumeter SM 810 PC immediately indicates sebum content between 50 & 300 μgm/cm^2 % sebum reduction is calculated.
The protocol to measure the % reduction in sebum secretion is as per the procedure described above. The samples of creams described in Examples 4, 5 and 6 were tested for their efficacy in reducing the sebum secretion and the data are presented in Table 3.

Structure (SMILES) | effect in reducing oil secretion on the skin (in words)
NC(=O)c1cccnc1 [niacinamide] | significant effect in reducing oil secretion on the skin
CCCCCCCCCCCCCOC(=O)c1ccccc1O [tridecyl salicylate] | significant effect in reducing oil secretion on the skin
